Values of other authors, collected in patent publication US11154501B2, “Method of enhancing the efficacy and stability of ingredients in suspensions” (Nanophase Technologies Corporation, priority 2019, dated 2021).

Conditions: for solubility limit: in water at 25° C.

Structure (SMILES) | solubility limit [%] | solubility (in words) (in neutral water)
NC(=O)NC1NC(=O)NC1=O (stereo not drawn) [allantoin, (2,5-dioxo-4-imidazolidinyl) urea, reference compound] | 0.5 | 
O.O.O=c1c(O)c(-c2ccc(O)c(O)c2)oc2cc(O)cc(O)c12 [quercetin dihydrate] |  | very poorly soluble
C[C@@H]1O[C@@H](OC[C@H]2O[C@@H](Oc3c(-c4ccc(O)c(O)c4)oc4cc(O)cc(O)c4c3=O)[C@H](O)[C@@H](O)[C@@H]2O)[C@H](O)[C@H](O)[C@H]1O [rutin] | 0.013 | 
